Biological target: T1, KCNQ5 (Homo sapiens, UniProt Q9NR82)
T1 construct: A complete cDNA was assembled and cloned into the oocyte expression vector PTLN; expressed in transfected cells; host or cells: Xenopus oocytes injected with cRNA from pTLN
Assay: Two-electrode voltage clamp of KCNQ5 homomers expressed in Xenopus oocytes
Format: cell-based
Description: KCNQ5 was expressed in Xenopus oocytes and its activity was investigated by two-electrode voltage clamping.
After linearization of the KCNQ5-containing pTLN vector with Hpal, capped cRNA was transcribed in vitro using the mMessage mMachine cRNA synthesis kit (Ambion). Usually 5-15 ng of cRNA were injected into Xenopus oocytes previously isolated by manual defolliculation and short collagenase treatment. In co-expression experiments cRNAs were injected at a 1:1 ratio. Oocytes were kept at 17° C. in modified Barth's solution (90 mM NaCl, 1 mM KCl, 0.41 mM CaCl2, 0.33 mM Ca(NO3)2, 0.82 mM MgSO4, 10 mM HEPES, 100 U penicillin—100 μg streptomycin/ml, pH 7.6).
Standard two-electrode voltage-clamp measurements were performed at room temperature 2-4 days after injection using a Turbotec 05 amplifier (npi instruments, Tamm, Germany) and pClamp 5.5 software (Axon Instruments). Currents were usually recorded in ND98 solution (see Table 2). Linopirdine (RBI, Natick, Mass.) was prepared as a 100 mM stock solution in DMSO and added to a final concentration of 200 μM to ND98.
To determine the voltage dependence of apparent open probability, oocytes were clamped for 2 seconds to values between −80 mV to +40 mV, in 10 mV steps, followed by a constant −30 mV test pulse. Tail currents extrapolated to t=0 were obtained from a mono-exponential fit, normalised to the value at 0 mV and used for the analysis of apparent popen. Data analysis used PClamp6 and Microcal Origin 5.0.

T1 sequence (Q9NR82 36-932): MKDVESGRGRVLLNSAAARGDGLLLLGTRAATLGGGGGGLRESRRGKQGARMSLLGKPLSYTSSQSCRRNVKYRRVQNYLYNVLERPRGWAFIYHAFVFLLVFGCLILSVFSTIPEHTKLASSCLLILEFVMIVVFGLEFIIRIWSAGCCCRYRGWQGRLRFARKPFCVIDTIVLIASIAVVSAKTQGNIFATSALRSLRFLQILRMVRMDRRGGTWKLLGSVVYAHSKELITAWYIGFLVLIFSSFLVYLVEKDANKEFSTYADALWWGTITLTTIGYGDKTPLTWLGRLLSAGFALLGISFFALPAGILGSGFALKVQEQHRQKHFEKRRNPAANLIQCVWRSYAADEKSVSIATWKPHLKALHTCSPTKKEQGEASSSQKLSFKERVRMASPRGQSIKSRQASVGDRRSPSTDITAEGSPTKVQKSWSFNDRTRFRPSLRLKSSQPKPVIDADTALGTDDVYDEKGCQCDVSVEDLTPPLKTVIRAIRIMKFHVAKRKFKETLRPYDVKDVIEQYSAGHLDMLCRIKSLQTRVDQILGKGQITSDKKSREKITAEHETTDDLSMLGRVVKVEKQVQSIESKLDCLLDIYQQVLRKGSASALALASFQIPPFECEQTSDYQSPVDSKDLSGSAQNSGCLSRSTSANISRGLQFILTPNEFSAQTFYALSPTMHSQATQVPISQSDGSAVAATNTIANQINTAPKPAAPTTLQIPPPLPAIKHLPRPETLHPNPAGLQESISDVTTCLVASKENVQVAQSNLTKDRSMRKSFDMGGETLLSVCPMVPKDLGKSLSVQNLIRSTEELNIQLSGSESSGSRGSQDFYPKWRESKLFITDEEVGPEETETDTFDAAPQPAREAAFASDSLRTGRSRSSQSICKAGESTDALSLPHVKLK

## [Ba+2] [Ba^++]
5 mM
  inhibition of KCNQ5 currents: more than 80%

## O=C(O)c1cccnc1Nc1cccc(C(F)(F)F)c1 [Niflumic acid, niflumic acid]
500 μM niflumic acid (FIG. 5B)
  shift of voltage dependence of apparent popen towards negative potentials: about 20 mV

## O=C1c2ccccc2C(Cc2ccncc2)(Cc2ccncc2)c2ccccc21 [XE991, 10,10-bis-(4-pyridinyl-methyl)-9-(10H)-antracenone]
Extracellular application, Xenopus oocytes, from fit curves (FIG. 5A), read-out: IC50, inhibition of KCNQ5 homomers
  IC50: 65 ± 4 µM
